Results from patent publication US6537553B1, “Leukosialin: Ig fusion proteins” (La Jolla Cancer Research Foundation, priority 1993, dated 2003).

Experiments:
[1] = system: activated mouse tEnd.1 cells (E-selectin mediated adhesion); assay: Inhibition of adhesion of SM colonic carcinoma cells to IL-1β-activated mouse tEnd.1 endothelial cell monolayers; type: cell-based; settings: for inhibition of adhesion of SM cells to activated mouse tEnd.1 cells: IL-1β-activated tEnd.1 monolayers, result in words (FIG. 4, 5A, 5B)
Source text: The mouse endothelioma cell lines, eEnd.2, sEnd.1, tEnd.1, and bEnd.4 were kindly provided by Dr. R. Lindsay Williams at the Ludwig Institute for Cancer Research, […], Austria. These cell lines, originally derived from a subcutaneous (sEnd.1), thymic (tEnd.1), embryonal (eEnd.2), and brain (bEnd.4) hemangliomas produced in transgenic mice expressing polyoma middle T antigen (Williams et al., Cell 52:121-131 (1988)). The cells were maintained in Dulbecco's modified Eagle's medium containing 10% fetal calf serum. Mouse endothelioma cell lines were cultured in 96-well tissue culture plates and activated with 10 units/ml IL-1β (Sigma) and then washed with Dulbecco's modified Eagle's medium containing 5% fetal calf serum before the colonic carcinoma cells were added. As the control, non-activated mouse endothelial cells were prepared identically and used in parallel for the adhesion assays. The adhesion and inhibition of the adhesion by soluble lamp-1 and soluble leukosialin were carried out exactly as described previously (Sawada et al., supra).
Inhibition by sialyl Le^x-positive glycolipid, NeuNAcα2→3Galβ1→4-(Fucα1→3)GlcNAcβ1→3Galβ1→4Glc→Cer was tested after the glycolipid was incorporated into liposomes (Phillips et al., Science 250:1130-1132 (1990)). Paragloboside, NeuNAcα2→3Galβ1→4GlcNAcβ1→3Galβ1→4Glc→Cer was used as a control glycolipid. Sialyl Le^x glycolipid (Kameyama et al., Carbohydr. Res. 209:C1-C4 (1991)) and paragloboside were kindly provided by Drs. Akira Hasegana, Gifu University, Japan, and Michiko Fukuda at this institute, respectively. In order to determine if sialyl Le^x structure on the human colonic cells are recognized by mouse endothelial cells, the adhesion was assayed after the colonic cells were preincubated with anti-sialyl Le^x antibody (CSLEX, IgM) or mouse anti-Le^x monoclonal antibody (anti-PMN-6, IgM). The anti-PMN-6 antibody (Ball and Fanger, Blood 61:456-463 (1983)) was kindly provided by Dr. Ball of the Dartmouth Medical School.
First, the binding of the cell line with the highest adhesion efficiency was tested in the presence of a sialyl Le^x containing glycolipid. SM cells were subjected to adhesion to activated mouse tEnd.1 cells as described in Example IV (and FIG. 3) (open bar), or as in FIG. 3 after pretreatment of the activated monolayers with liposomes containing sialyl Le^x glycolipid (hatched bars), or after pretreatment with liposomes containing the control glycolipid paragloboside (cross-hatched bar). The amount of glycolipid is shown in μg/ml at the x axis. The adhesion to non-activated mouse endothelial cells is shown by the closed bar. Data correspond to the fraction of applied cells still adherent to tEnd.1 cells after washing and are mean and standard deviation from four replicate assays.
The adhesion of SM cells to activated mouse tEnd.1 cells was tested for inhibition by soluble lamp-1 (FIG. 5A) or soluble leukosialin (FIG. 5B). The inhibition by soluble lamp-1 or soluble leukosialin derived from sialyl Le^x positive CHO cells is shown by hatched bars.
Inhibition by control soluble lamp-1 or control soluble leukosialin, which were derived from sialyl Le^x negative CHO cells, is shown by cross-hatched bars. The open bar represents the control without the inhibitors while the closed bar represents the adhesion to unstimulated mouse tEnd.1 monolayers. The experiments shown in FIGS. 5A and 5B were carried out at the same time.

[2] = target: mouse E-selectin on IL-1β-activated mouse tEnd.1 endothelioma cells (mouse) (UniProt Q00690); assay: cell-based or functional assay
HUVEC = settings: as described in Sawada et al. (1993); cited from earlier work

Sequence of UniProt Q00690 (Q00690 22-612): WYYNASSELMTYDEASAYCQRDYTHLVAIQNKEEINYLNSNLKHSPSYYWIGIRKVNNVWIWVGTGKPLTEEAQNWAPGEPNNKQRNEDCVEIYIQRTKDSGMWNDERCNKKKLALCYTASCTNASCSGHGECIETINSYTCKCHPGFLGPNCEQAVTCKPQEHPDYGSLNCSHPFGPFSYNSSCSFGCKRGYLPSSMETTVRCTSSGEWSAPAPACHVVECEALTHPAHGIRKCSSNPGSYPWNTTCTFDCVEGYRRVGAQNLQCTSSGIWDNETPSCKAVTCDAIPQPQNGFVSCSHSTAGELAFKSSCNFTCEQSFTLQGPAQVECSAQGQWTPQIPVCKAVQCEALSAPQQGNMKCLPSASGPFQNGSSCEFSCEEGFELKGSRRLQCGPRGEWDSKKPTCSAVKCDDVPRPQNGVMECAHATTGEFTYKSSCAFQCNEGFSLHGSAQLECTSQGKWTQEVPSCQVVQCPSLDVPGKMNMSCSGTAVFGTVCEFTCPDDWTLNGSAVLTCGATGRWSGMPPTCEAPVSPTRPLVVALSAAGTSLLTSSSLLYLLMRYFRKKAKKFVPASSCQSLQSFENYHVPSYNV

## NeuNAcα2→3Galβ1→4-(Fucα1→3)GlcNAcβ1→3Galβ1→4Glc→Cer [sialyl Le^x glycolipid, reference compound]
[1]; SM cells
  inhibition of adhesion of SM cells to activated mouse tEnd.1 cells: inhibited by liposomes containing sialyl Le^x glycolipid in a dose-dependent manner
[1]; same carcinoma cells, same conditions, mouse vs human endothelial cells
  inhibition of adhesion to mouse cells compared with human endothelial cells: not as effective as the inhibition of the same carcinoma cells to human endothelial cells

## NeuNAcα2→3Galβ1→4GlcNAcβ1→3Galβ1→4Glc→Cer [sialyl paragloboside, reference compound]
[1]; SM cells
  inhibition of adhesion of SM cells to activated mouse tEnd.1 cells: did not inhibit the adhesion even at high concentrations

## sialyl-Le^x-negative leukosialin: soluble leukosialin IgG chimeric protein lacking the sialyl-Le^x determinant, from control CHO cells without Fuc-TIII vector [reference compound]
[1]; SM cells
  inhibition of adhesion of SM cells to activated mouse tEnd.1 cells: inhibited the binding minimally
[1]; SM cells, listed as soluble sialyl Le^x negative leukosialin
  inhibition of adhesion of SM cells to activated mouse tEnd.1 cells: inhibited binding only minimally

## sialyl-Le^x-positive leukosialin: soluble leukosialin fused to human IgG1 hinge plus constant region, from CHO cells expressing core 2 GlcNAc-transferase and Fuc-TIII; carries sialyl Le^x
[1]; SM cells
  inhibition of adhesion of SM cells to activated mouse tEnd.1 cells: inhibited the adhesion of SM cells to mouse tEnd.1 cells in a concentration-dependent manner
[1]; SM cells, listed as sialyl Le^x positive leukosialin
  inhibition of adhesion of SM cells to activated mouse tEnd.1 cells: inhibited the adhesion of SM cells to mouse tEnd.1 cells in a concentration dependent manner
[1]; SM cells, activated tEnd.1, concentration not stated in text (FIG. 5B)
  binding of SM cells to tEnd.1 cells, relative to control levels: 30 % of control levels

## soluble chimeric leukosialin-IgG protein, sialyl Le^x positive (from CHO-leu.C2GnT cells transfected with pSRα.s-leu.IgG and pcDNAI-Fuc.TIII) (from UniProt P16150 20-252; P01857 99-330) (Fc fusion)
[2]
  adhesion of SM cells to mouse tEnd.1 cells, percent of control (% of control levels): 30

B1: soluble lamp-1 containing the sialyl Le^x: soluble form of lysosomal membrane glycoprotein-1 from CHO cells co-transfected with Fuc-TIII vector; carries sialyl Le^x (protein)
chain: AMFMVKNGNGTACIMANFSAAFSVNYDTKSGPKNMTFDLPSDATVVLNRSSCGKENTSDPSLVIAFGRGHTLTLNFTRNATRYSVQLMSFVYNLSDTHLFPNASSKEIKTVESITDIRADIDKKYRCVSGTQVHMNNVTVTLHDATIQAYLSNSSFSRGETRCEQDRPSPTTAPPAPPSPSPSPVPKSPSVDKYNVSGTNGTCLLASMGLQLNLTYERKDNTTVTRLLNINPNKTSASGSCGAHLVTLELHSEGTTVLLFQFGMNASSSRFFLQGIQLNTILPDARDPAFKAANGSLRALQATVGNSYKCNAEEHVRVTKAFSVNIFKVWVQAFKVEGGQFGSVEECLLDENSM
[1]; SM cells
  inhibition of adhesion of SM cells to activated mouse tEnd.1 cells: able to inhibit the adhesion of SM cells to activated mouse tEnd.1 cells in a dose-dependent manner
HUVEC
  inhibition of binding of SP-pSRαlamp-1^H cells to HUVEC: inhibited the binding of the SP-pSRαlamp-1^H to HUVEC
